# Results reported in patent US20240174622A1, “COMPOUND AND RADIOACTIVE LABELING COMPOUND” (NIHON MEDI-PHYSICS CO., LTD., priority 2021, published 2024).
# Legend:
# [1] = test system: LNCaP tumor-transplanted mouse; test: Internal radioactivity distribution using LNCaP tumor-transplanted mouse; format: in vivo
# Outline: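 Male SCID mice bearing subcutaneous LNCaP or PC-3 xenografts (40–60 days) received the 111In-labelled compound i.v. via tail vein (185–259 kBq in saline; n=2–3). Blood and organs collected at 1 to 192 hours post-dose, weighed and counted. Uptake expressed as %ID/g.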
# [2] = test system: PC-3 tumor-transplanted mouse; test: Internal radioactivity distribution using PC-3 tumor-transplanted mouse; format: in vivo
# Description: (§1) The animal test was performed in compliance with the guidelines of Kyoto University Animal Experiment Committee. Male CB17/IcrJcl-Prkdc^scid mice were purchased from CLEA Japan, Inc. The animals were kept under 12 h/12 h, day/night cycle conditions and fed ad libitum with food and water. LNCaP cells (1.0×10^7 cells/mouse) or PC-3 cells (1.0×10^7 cells/mouse) were suspended in a mixture of PBS and Matrigel manufactured by Corning Life Sciences (1:1, 150 μL) and the suspension was subcutaneously transplanted to the right shoulder of mice under isoflurane anesthesia. Thereafter, the mice were kept for 40 to 60 days.
# LNCaP or PC-3 tumor-implanted mice were administered saline solutions (185 kBq, 100 μL) of [^111In]In-PSMA-DA1 or [^111In]In-PSMA-DB from the tail vein (n=3 each). Mice were euthanized 1, 4, 24, 48, 96, and 192 hours after administration. Thereafter, blood and each organ were recovered, and the mass and radioactivity of the organs were measured.
# The percentage (% ID) of the radioactivity amount to the administered radioactivity amount (injected dose) is shown as the value (% ID/g) divided by the blood mass or the organ mass (g).
# as §1, with “LNCaP cells (4.3×10^6 cells/mouse) or” for “LNCaP cells (1.0×10^7 cells/mouse) or”, “PC-3 cells (3.3×10^6 cells/mouse) were” for “PC-3 cells (1.0×10^7 cells/mouse) were”, “shoulder of CB17/IcrJcl-Prkdc^scid mice under” for “shoulder of mice under”
# Mice were euthanized 1, 4, 24, 48, 96, and 192 hours after administration. Thereafter, blood and each organ were recovered, and the mass and radioactivity of the organs were measured.
# The results are shown in Table 13 (Mean value±standard deviation, n=3).
# [3] = 24 h after administration, PC-3 tumor-transplanted mice
smiles,measurement,setting,value
O=C([O-])CN1CCN(C(CCC(=O)NCCCC[C@H](NC(=O)N[C@@H](CCC(=O)O)C(=O)O)C(=O)O)C(=O)[O-])CCN(CC(=O)[O-])CCN(C(CCC(=O)N[C@@H](CCCCNC(=O)CCCc2ccc(I)cc2)C(=O)O)C(=O)[O-])CC1.[111In+3] (stereo partly drawn) [[^111In]In-PSMA-DA1],Blood,[1]; 1 h after administration,31.1 ± 3.99 % ID/g
same,Brain,[1]; 1 h after administration,0.56 ± 0.06 % ID/g
same,Heart,[1]; 1 h after administration,7.93 ± 2.10 % ID/g
same,Intestine,[1]; 1 h after administration,2.63 ± 0.42 % ID/g
same,Kidney,[1]; 1 h after administration,34.3 ± 7.79 % ID/g
same,LNCaP Tumor,[1]; 1 h after administration,9.41 ± 2.30 % ID/g
same,Liver,[1]; 1 h after administration,4.95 ± 0.27 % ID/g
same,Lung,[1]; 1 h after administration,16.2 ± 3.86 % ID/g
same,Muscle,[1]; 1 h after administration,2.02 ± 0.17 % ID/g
same,Pancreas,[1]; 1 h after administration,3.34 ± 0.40 % ID/g
same,Spleen,[1]; 1 h after administration,8.56 ± 2.90 % ID/g
same,Stomach (% ID),[1]; 1 h after administration,0.52 ± 0.02 % ID
same,Blood,[1]; 4 h after administration,26.9 ± 9.56 % ID/g
same,Brain,[1]; 4 h after administration,0.52 ± 0.15 % ID/g
same,Heart,[1]; 4 h after administration,7.10 ± 1.82 % ID/g
same,Intestine,[1]; 4 h after administration,3.17 ± 0.73 % ID/g
same,Kidney,[1]; 4 h after administration,63.5 ± 13.9 % ID/g
same,LNCaP Tumor,[1]; 4 h after administration,12.1 ± 4.04 % ID/g
same,Liver,[1]; 4 h after administration,4.20 ± 1.51 % ID/g
same,Lung,[1]; 4 h after administration,17.9 ± 6.62 % ID/g
same,Muscle,[1]; 4 h after administration,2.15 ± 1.09 % ID/g
same,Pancreas,[1]; 4 h after administration,2.48 ± 1.03 % ID/g
same,Spleen,[1]; 4 h after administration,9.52 ± 4.28 % ID/g
same,Stomach (% ID),[1]; 4 h after administration,0.51 ± 0.05 % ID
same,Blood,[1]; 24 h after administration,14.0 ± 3.27 % ID/g
same,Brain,[1]; 24 h after administration,0.36 ± 0.11 % ID/g
same,Heart,[1]; 24 h after administration,4.26 ± 0.89 % ID/g
same,Intestine,[1]; 24 h after administration,1.53 ± 0.44 % ID/g
same,Kidney,[1]; 24 h after administration,27.1 ± 9.25 % ID/g
same,LNCaP Tumor,[1]; 24 h after administration,12.6 ± 2.15 % ID/g
same,Liver,[1]; 24 h after administration,2.64 ± 0.38 % ID/g
same,Lung,[1]; 24 h after administration,10.5 ± 2.58 % ID/g
same,Muscle,[1]; 24 h after administration,1.38 ± 0.39 % ID/g
same,Pancreas,[1]; 24 h after administration,2.12 ± 0.49 % ID/g
same,Spleen,[1]; 24 h after administration,6.01 ± 2.33 % ID/g
same,Stomach (% ID),[1]; 24 h after administration,0.40 ± 0.09 % ID
same,retention in blood,[1]; 24 hours after administration,14.000 % ID/g
same,Blood,[1]; 48 h after administration,4.18 ± 0.56 % ID/g
same,Brain,[1]; 48 h after administration,0.16 ± 0.01 % ID/g
same,Heart,[1]; 48 h after administration,1.66 ± 0.23 % ID/g
same,Intestine,[1]; 48 h after administration,0.96 ± 0.25 % ID/g
same,Kidney,[1]; 48 h after administration,9.04 ± 2.70 % ID/g
same,LNCaP Tumor,[1]; 48 h after administration,8.82 ± 1.26 % ID/g
same,Liver,[1]; 48 h after administration,1.59 ± 0.14 % ID/g
same,Lung,[1]; 48 h after administration,4.17 ± 0.26 % ID/g
same,Muscle,[1]; 48 h after administration,0.54 ± 0.10 % ID/g
same,Pancreas,[1]; 48 h after administration,1.06 ± 0.12 % ID/g
same,Spleen,[1]; 48 h after administration,4.28 ± 0.79 % ID/g
same,Stomach (% ID),[1]; 48 h after administration,0.25 ± 0.05 % ID
same,tumor/kidney ratio,[1]; 48 hours after administration,exceeded 1
same,Blood,[1]; 96 h after administration,0.76 ± 0.58 % ID/g
same,Brain,[1]; 96 h after administration,0.07 ± 0.03 % ID/g
same,Heart,[1]; 96 h after administration,0.75 ± 0.33 % ID/g
same,Intestine,[1]; 96 h after administration,0.75 ± 0.44 % ID/g
same,Kidney,[1]; 96 h after administration,3.51 ± 2.54 % ID/g
same,LNCaP Tumor,[1]; 96 h after administration,5.98 ± 1.87 % ID/g
same,Liver,[1]; 96 h after administration,1.10 ± 0.27 % ID/g
same,Lung,[1]; 96 h after administration,1.55 ± 0.86 % ID/g
same,Muscle,[1]; 96 h after administration,0.23 ± 0.09 % ID/g
same,Pancreas,[1]; 96 h after administration,0.64 ± 0.24 % ID/g
same,Spleen,[1]; 96 h after administration,2.42 ± 1.54 % ID/g
same,Stomach (% ID),[1]; 96 h after administration,0.08 ± 0.03 % ID
same,Blood,[1]; 192 h after administration,0.16 ± 0.03 % ID/g
same,Brain,[1]; 192 h after administration,0.05 ± 0.01 % ID/g
same,Heart,[1]; 192 h after administration,0.41 ± 0.08 % ID/g
same,Intestine,[1]; 192 h after administration,0.12 ± 0.03 % ID/g
same,Kidney,[1]; 192 h after administration,1.33 ± 0.42 % ID/g
same,LNCaP Tumor,[1]; 192 h after administration,4.69 ± 1.32 % ID/g
same,Liver,[1]; 192 h after administration,0.69 ± 0.12 % ID/g
same,Lung,[1]; 192 h after administration,0.75 ± 0.22 % ID/g
same,Muscle,[1]; 192 h after administration,0.15 ± 0.05 % ID/g
same,Pancreas,[1]; 192 h after administration,0.46 ± 0.08 % ID/g
same,Spleen,[1]; 192 h after administration,2.69 ± 0.83 % ID/g
same,Stomach (% ID),[1]; 192 h after administration,0.05 ± 0.01 % ID
same,Blood,[2]; [3],5.73 ± 0.67 % ID/g
same,Brain,[2]; [3],0.17 ± 0.04 % ID/g
same,Heart,[2]; [3],1.90 ± 0.22 % ID/g
same,Intestine,[2]; [3],1.37 ± 0.22 % ID/g
same,Kidney,[2]; [3],9.56 ± 1.55 % ID/g
same,Liver,[2]; [3],1.60 ± 0.12 % ID/g
same,Lung,[2]; [3],4.74 ± 0.67 % ID/g
same,Muscle,[2]; [3],0.59 ± 0.02 % ID/g
same,PC-3 Tumor,[2]; [3],2.69 ± 0.30 % ID/g
same,Pancreas,[2]; [3],1.37 ± 0.04 % ID/g
same,Spleen,[2]; [3],2.52 ± 0.12 % ID/g
same,Stomach (% ID),[2]; [3],0.27 ± 0.08 % ID
same,accumulation at the PC-3 tumor compared with the LNCaP tumor at the same time point (in words),"[2]; mouse, in vivo",less accumulated
